Among the data in ChEMBL document CHEMBL3227942, “Synthetic studies on beta-lactam antibiotics. Part 101. Synthesis of 7beta-[2-carboxy-2-(4-hydroxyphenyl)acetamido]-7alpha-methoxy-3-[[(1-methyl-1H-tetrazol-5-yl)thio]-methyl]-1-oxa-1-dethia-3-cephem-4-carboxylic acid disodium salt (6059-S) and its related 1-oxacephems” (1979) are MIC values, retold here.

The structures appear in SMILES notation. In brackets after ≈: the same amount, converted by molar mass.

Common to all, as to format: functional
Experiment [1] has as its system Serratia marcescens. Nature of the experiment: Antibacterial activity against Serratia marcescens ATCC 13880.
The test system of experiment [2] is Klebsiella pneumoniae. Briefly: Antibacterial activity against beta-lactamase producing Klebsiella pneumoniae 363.
The subject of experiment [3] is Enterobacter cloacae. Briefly: Antibacterial activity against Enterobacter cloacae 233.
In experiment [4] the test system is Proteus vulgaris. Briefly: Antibacterial activity against Proteus vulgaris CN-329.
The test system of experiment [5] is Staphylococcus aureus. Briefly: Antibacterial activity against Staphylococcus aureus 209P JC-1.
Experiment [6] has as its system Proteus mirabilis. Briefly: Antibacterial activity against Proteus mirabilis PR-4.
In experiment [7] the test system is Staphylococcus aureus. Nature of the experiment: Antibacterial activity against beta-lactamase producing Staphylococcus aureus C-14.
For experiment [8], the system named is Klebsiella pneumoniae. Briefly: Antibacterial activity against Klebsiella pneumoniae.
For experiment [9], the system named is Streptococcus pneumoniae. Nature of the experiment: Antibacterial activity against Streptococcus pneumoniae I.
In experiment [10] the test system is Pseudomonas aeruginosa. Briefly: Antibacterial activity against Pseudomonas aeruginosa 24.
For experiment [11], the system named is Escherichia coli. Briefly: Antibacterial activity against Escherichia coli NIHJ JC-2.

For `CC(=O)OCC1=C(C(=O)O)N2C(=O)[C@@H](NC(=O)Cc3cccs3)[C@H]2OC1`, the MIC in [1] is greater than 100 µg/mL; in experiment [2], greater than 100 µg/mL; in experiment [3], 100 µg/mL (≈ 263 µM); in [4] it was 50 µg/mL (≈ 131 µM); in [5], 0.013 µg/mL (≈ 0.0342 µM); in [6], 0.4 µg/mL (≈ 1.05 µM). Further, the minimum inhibitory concentration (MIC) in [7] was 0.1 µg/mL (≈ 0.263 µM); in experiment [8], 0.2 µg/mL (≈ 0.526 µM); in [9], 0.025 µg/mL (≈ 0.0657 µM); in experiment [10], greater than 100 µg/mL; in [11] it was 0.8 µg/mL (≈ 2.1 µM).

`CO[C@@]1(NC(=O)[C@H](OC=O)c2ccccc2)C(=O)N2C(C(=O)O)=C(CSc3nnnn3C)CO[C@@H]21`: the MIC worked out at 3.1 µg/mL (≈ 6.14 µM) in [1]; 0.1 µg/mL (≈ 0.198 µM) in experiment [2]; 3.1 µg/mL (≈ 6.14 µM) in experiment [3]; 0.2 µg/mL (≈ 0.396 µM) in [4]; 0.4 µg/mL (≈ 0.793 µM) in [5]; 0.2 µg/mL (≈ 0.396 µM) in experiment [6]. Also, the MIC in experiment [7] was 0.4 µg/mL (≈ 0.793 µM); in experiment [8] it was 0.1 µg/mL (≈ 0.198 µM); in experiment [9] it was 0.2 µg/mL (≈ 0.396 µM); in [10], greater than 100 µg/mL; in [11], 0.05 µg/mL (≈ 0.0991 µM).

Turning to `Cn1nnnc1SCC1=C(C(=O)O)N2C(=O)[C@@H](NC(=O)[C@H](O)c3ccccc3)[C@H]2OC1`, the MIC in [1] worked out at 6.3 µg/mL (≈ 14.1 µM); in experiment [2], 100 µg/mL (≈ 224 µM); in experiment [3], 0.4 µg/mL (≈ 0.896 µM); in experiment [4], 0.1 µg/mL (≈ 0.224 µM); in [5] it was 0.025 µg/mL (≈ 0.056 µM); in experiment [6] it was 0.1 µg/mL (≈ 0.224 µM). For the same compound, the MIC was 0.4 µg/mL (≈ 0.896 µM) in experiment [7]; 0.05 µg/mL (≈ 0.112 µM) in [8]; 0.025 µg/mL (≈ 0.056 µM) in experiment [9]; greater than 100 µg/mL in [10]; 0.05 µg/mL (≈ 0.112 µM) in experiment [11].

As to `CO[C@]1(NC(=O)[C@H](OC=O)c2ccccc2)C(=O)N2C(C(=O)O)=C(CSc3nnnn3C)CS[C@@H]21`, the MIC is 12.5 µg/mL (≈ 24 µM) in [1]; 0.8 µg/mL (≈ 1.54 µM) in [2]; 12.5 µg/mL (≈ 24 µM) in experiment [3]; 0.8 µg/mL (≈ 1.54 µM) in experiment [4]; 0.8 µg/mL (≈ 1.54 µM) in [5]; 1.6 µg/mL (≈ 3.07 µM) in [6]. Moreover, the MIC in [7] was 3.1 µg/mL (≈ 5.96 µM); in experiment [8] it was 0.8 µg/mL (≈ 1.54 µM); in experiment [9], 1.6 µg/mL (≈ 3.07 µM); in [10], greater than 100 µg/mL; in experiment [11], 1.6 µg/mL (≈ 3.07 µM).

On to `Cn1nnnc1SCC1=C(C(=O)O)N2C(=O)[C@@H](NC(=O)[C@H](O)c3ccccc3)[C@H]2SC1` [CEFAMANDOLE], for which the MIC was 50 µg/mL (≈ 108 µM) in experiment [1]; greater than 100 µg/mL in [2]; 3.1 µg/mL (≈ 6.7 µM) in [3]; 0.8 µg/mL (≈ 1.73 µM) in experiment [4]; 0.1 µg/mL (≈ 0.216 µM) in [5]; 0.8 µg/mL (≈ 1.73 µM) in experiment [6]. In addition, the MIC was 0.4 µg/mL (≈ 0.865 µM) in [7]; 0.4 µg/mL (≈ 0.865 µM) in experiment [8]; 0.1 µg/mL (≈ 0.216 µM) in [9]; greater than 100 µg/mL in [10]; 0.4 µg/mL (≈ 0.865 µM) in [11].

In the case of `CC(=O)OCC1=C(C(=O)O)N2C(=O)[C@@H](NC(=O)Cc3cccs3)[C@H]2SC1` [CEPHALOTHIN], the MIC was greater than 100 µg/mL in experiment [1]; greater than 100 µg/mL in experiment [2]; greater than 100 µg/mL in experiment [3]; 50 µg/mL (≈ 126 µM) in experiment [4]; 0.05 µg/mL (≈ 0.126 µM) in experiment [5]; 3.1 µg/mL (≈ 7.82 µM) in experiment [6]. Besides, the MIC is 0.2 µg/mL (≈ 0.504 µM) in [7]; 0.8 µg/mL (≈ 2.02 µM) in [8]; 0.1 µg/mL (≈ 0.252 µM) in experiment [9]; greater than 100 µg/mL in experiment [10]; 6.3 µg/mL (≈ 15.9 µM) in [11].

For `CO[C@@]1(NC(=O)C(C(=O)[O-])c2ccc(O)cc2)C(=O)N2C(C(=O)[O-])=C(CSc3nnnn3C)CO[C@@H]21.[Na+].[Na+]` (some centres not stated) [MOXALACTAM DISODIUM], the MIC is 0.4 µg/mL in experiment [1]; 0.05 µg/mL in [2]; 0.2 µg/mL in experiment [3]; 0.1 µg/mL in experiment [4]; 6.3 µg/mL in experiment [5]; 0.1 µg/mL in [6]. Moreover, the MIC in experiment [7] was 6.3 µg/mL; in experiment [8], 0.1 µg/mL; in experiment [9] it was 3.1 µg/mL; in experiment [10] it was 25 µg/mL; in experiment [11], 0.1 µg/mL.

For orientation: MIC means the least concentration at which growth counts as inhibited. A higher MIC goes with a less susceptible organism.
